PubChem BioAssay (NCI)
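Briefly, cells in 96-well plates were exposed to five compound concentrations for 48 h, and endpoints were estimated by linear interpolation. The concentration for 50% growth inhibition is given as GI50. TGI: concentration producing complete growth inhibition.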

Legend:
Assay in all cases: NCI-60 cell line screen, 48 h
ACHN renal = system: ACHN renal
HCT-116 colon = system: HCT-116 colon
MALME-3M melanoma = system: MALME-3M melanoma
MCF7 breast = system: MCF7 breast
NCI-H522 lung = system: NCI-H522 lung
NCI/ADR-RES ovarian = system: NCI/ADR-RES ovarian
OVCAR-8 ovarian = system: OVCAR-8 ovarian
RXF 393 renal = system: RXF 393 renal

SMILES | GI50 (ACHN renal) [µM] | TGI (ACHN renal) [µM] | GI50 (HCT-116 colon) [µM] | TGI (HCT-116 colon) [µM] | GI50 (MALME-3M melanoma) [µM] | TGI (MALME-3M melanoma) [µM] | GI50 (MCF7 breast) [µM] | TGI (MCF7 breast) [µM] | GI50 (NCI-H522 lung) [µM] | TGI (NCI-H522 lung) [µM] | GI50 (NCI/ADR-RES ovarian) [µM] | TGI (NCI/ADR-RES ovarian) [µM] | GI50 (OVCAR-8 ovarian) [µM] | TGI (OVCAR-8 ovarian) [µM] | GI50 (RXF 393 renal) [µM] | TGI (RXF 393 renal) [µM]
Fc1ccc(-c2ncn(C3CCNCC3)c2-c2ccnc(Oc3ccc4c(c3)OCO4)n2)cc1 | 8.82 | > 25 | 16.8 | > 25 | 21.4 | > 25 | 9.14 | > 25 | > 25 | > 25 | > 25 | > 25 | > 25 | > 25 | 7.88 | > 25
Oc1c(C(Nc2ccccc2Br)c2ccccc2)ccc2cccnc12 (stereo not drawn) | 2.04 | > 100 | 3.13 | 18 | 4.42 | 29.2 | 1.56 | 65.1 | 2.39 | 16.6 | 1.44 | 24.5 | 2.11 | > 100 | 1.97 | 20.9
CCC(=O)N1C/C(=C/c2ccc(Cl)cc2)C(=O)/C(=C/c2ccc(Cl)cc2)C1 | 0.745 | 1.98 | 0.179 | 0.435 | 2.06 | 4.08 | 0.324 | 1.36 | 0.973 | 2.4 | 1.79 | 12.2 | 0.451 | 2.12 | 0.723 | 2.08
OCCCCC#Cc1ccccc1C#Cc1ccc(O)cc1 | 16.6 | 31.2 | 16.6 | 31.8 | 20.9 | 43 | 17.4 | 49.2 | 13.8 | 28.8 | 17.3 | 35.2 | 17.1 | 34.9 | 0.622 | 22.4
CC1=CC2C(C(O)CC3(C)C2CC(C)C32OCOC23COCO3)C2(C)C/C(=C/O)C(=O)C=C12 (stereo not drawn) | 1.85 | 3.45 | 1.49 | 2.97 | 1.84 | 3.58 | 2.69 | 10.1 | 1.79 | 3.47 | 2.28 | 4.8 | 1.76 | 3.73 | 1.81 | 3.31
COc1ccc(/C=C(/c2ccccc2)[N+](=O)[O-])c(OC)c1 | 1.49 | 2.81 | 1.02 | 2.29 | 1.58 | 3.3 | – | – | 1.56 | 4.02 | 1.72 | 5.63 | 1.66 | 5.14 | 1.53 | 3.03
COc1ccccc1/C=C1\COc2ccc(-c3ccccc3)cc2C1=O | 3.86 | 26 | 2.98 | 12 | 3.81 | 40.4 | 2.4 | – | 3.1 | > 100 | 3.66 | 23.6 | 3.27 | 10.5 | – | –
CN(C)Cc1ccc(-c2cc3onc(-c4ccccc4)c3c(=O)n2C)cc1 | – | > 100 | – | 30.3 | – | 72.5 | – | > 100 | – | 39.5 | – | > 100 | – | > 100 | – | –
C=C1C(=O)O[C@H]2[C@H]1CC/C(COC(=O)CCCCCC(=O)OC/C1=C/CC[C@@]3(C)O[C@H]3[C@H]3OC(=O)C(=C)[C@@H]3CC1)=C\CC[C@@]1(C)O[C@@H]21 | 1.4 | 3.1 | – | – | 2.09 | 5.08 | – | – | 1.72 | 3.44 | 3.64 | 24.8 | 2.65 | 9.71 | 1.1 | 2.41
CCCCNNC(=O)c1ccc(Br)cc1 | 2.67 | > 36.1 | 1.47 | 13.4 | 1.7 | > 50 | 2.06 | > 50 | 1.27 | > 22 | 1.03 | > 37.8 | 1.5 | > 50 | 4.53 | 30.4
N#Cc1nc(-c2ccc(F)cc2)oc1S(=O)(=O)N1CCCCC1 | 1.76 | 3.15 | 1.79 | 3.54 | 1.69 | 3.37 | 1.69 | 3.82 | 0.927 | 3.1 | 4.97 | > 100 | 3.19 | 24.1 | 1.91 | 3.38
COc1ccc2c(c1)[n+](=O)c(C(=O)c1cccs1)c(C(F)(F)F)n2[O-] | 8.64 | > 50 | 12.3 | > 50 | – | – | 4.58 | 23.7 | 2 | 12.8 | 4.99 | > 50 | 2.79 | > 50 | > 50 | > 50
O=C(Oc1cccc(Cl)c1)c1ccccc1Nc1ccnc(C(F)(F)F)c1 | – | – | 1.63 | 3.45 | – | – | 4.78 | 20 | 4.21 | 41.1 | 2.24 | 6.1 | 3.52 | 18.1 | – | –
Cc1ccc(/C=C/c2c(C(=O)/C=C/c3ccccc3)c(C)nc3ccccc23)cc1 | 1.59 | 2.93 | 0.762 | 2.2 | 1.74 | 3.18 | – | – | 1.4 | 3.29 | 2.24 | 5.85 | 1.83 | 5.46 | 1.53 | 2.88
COc1ccc([C@H](CC(=O)O)N2CCN(CCCc3ccc4c(n3)NCCC4)C2=O)cn1 | > 52 | > 100 | 0.202 | > 34.7 | > 100 | > 100 | 0.247 | 0.902 | 0.114 | 0.267 | > 100 | > 100 | 0.277 | > 40 | 0.136 | > 100
CN(C)C(=O)Nc1nc2cc(Cl)c(Cl)cc2[nH]1 | 3.11 | > 100 | 0.463 | > 35 | 3.22 | 87.3 | 0.367 | > 100 | 0.38 | 4.14 | 0.507 | 9.37 | 2.46 | > 60.4 | 1.63 | > 28.7
